These results are taken from BindingDB's records for PubMed 34838650 (University of Messina, 2022).

One may read the Ki as a measure of affinity in units of concentration, obtained from inhibition or displacement.

Test [1] is described as follows: Inhibition of 20S constitutive proteosome beta1c subunit (unknown origin) assessed as substrate hydrolysis using Z-Leu-Leu-Glu-AMC as fluorogenic substrate at 100 uM.
The nature of test [2]: Inhibition of 20S constitutive proteosome beta2c subunit (unknown origin) assessed as substrate hydrolysis using Boc-Leu-Arg-Arg-AMC as fluorogenic substrate at 100 uM.
The target of test [3] is Proteasome subunit beta type-9 (PSMB9). Put plainly: Inhibition of 20S immuno proteosome beta1i subunit (unknown origin) assessed as substrate hydrolysis using Z-Leu-Leu-Glu-AMC as fluorogenic substrate at 100 uM.
Test [4] addresses Proteasome subunit beta type-10 (PSMB10). The test is described as follows: Inhibition of 20S immuno proteosome beta2i subunit (unknown origin) assessed as substrate hydrolysis using Boc-Leu-Arg-Arg-AMC as fluorogenic substrate at 100 uM.
The nature of test [5]: Inhibition of chymotrypsin-like activity of human 20s immuno proteasome beta5i subunit assessed as substrate hydrolysis using Suc-Leu-Leu-Val-Tyr-AMC as flurogenic substrate at 0.004 mg/ml measured for 10 mins by fluorescence assay.
The target in test [6] is Proteasome subunit beta type-9 (PSMB9). Put plainly: Inhibition of human spleen 20S immuno proteosome beta1i subunit assessed as substrate hydrolysis using Ac-Pro-Ala-Leu-AMC as fluorogenic substrate by fluorescence based assay.

For the molecule `COc1cc2ccn(C/C=C/C(=O)NCc3ccccc3)c(=O)c2cc1OC`, the Ki in test [1] amounted to 23 µM; in test [2], 9 µM; in test [3], 3 µM.

In the case of `COc1cc2ccn(C/C=C/C(=O)NCCC(C)C)c(=O)c2cc1OC`, the Ki in test [2] worked out at 4 µM; in test [4], 20 µM; in test [3], 0.27 µM.

`COc1cc2ccn(C/C=C/C(=O)NC3CCCCC3)c(=O)c2cc1OC`: the Ki in test [4] came out at 42 µM.

Regarding `CC(C)CCNC(=O)Cn1ccc2ccc(Br)cc2c1=O`, the Ki in test [5] amounted to 4.39 µM.

In the case of `COc1cc2ccn(C/C=C/C(=O)NCCCc3ccccc3)c(=O)c2cc1OC`, the Ki in test [2] is 5 µM; in test [4] it was 3 µM; in test [3], 50 µM.

Take `O=C(CCn1ccccc1=O)NCc1ccccc1`: the Ki in test [6] came out at 0.021 µM.

Take `CCCCNC(=O)/C=C/Cn1ccc2cc(OC)c(OC)cc2c1=O`: the Ki was found to be 10 µM in test [2] and 42 µM in test [4].

With `COc1cc2ccn(C/C=C/C(=O)Nc3ccccc3)c(=O)c2cc1OC`, the Ki in test [1] turned out to be 17 µM; in test [2], 15 µM; in test [4], 12 µM; in test [3], 10 µM.

In the case of `COc1cc2ccn(C/C=C/C(=O)NCCc3ccccc3)c(=O)c2cc1OC`, the Ki is 10 µM in test [2], 4 µM in test [4] and 14 µM in test [3].
